Read-outs that look alike come from different tables or passages of the source.
Columns and labels:
[1] = system: AMO-1 multiple myeloma cells; assay: Quantification of the cleaved form of PARP in vivo (MSD ELISA, tumour lysates); set-up: species or system mice (SCID strain); conditions: activation factor: cleaved PARP in treated mice / control mice, AMO-1 xenograft in SCID mice, intraveinous or oral routes
Procedure: The ability of the compounds of the invention to induce apoptosis, by measuring cleaved PARP levels, is evaluated in a xenograft model of AMO-1 multiple myeloma cells. 1.10^7 AMO-1 cells are grafted sub-cutaneously into immunosuppressed mice (SCID strain). 12 to 14 days after the graft, the animals are treated by intraveinous or oral routes with the various compounds. After treatment, the tumour masses are recovered and lysed, and the cleaved form of PARP is quantified in the tumour lysates.
The quantification is carried out using the “Meso Scale Discovery (MSD) ELISA platform” test, which specifically assays the cleaved form of PARP. It is expressed in the form of an activation factor corresponding to the ratio between the quantity of cleaved PARP in the treated mice divided by the quantity of cleaved PARP in the control mice.

[2] = system: H929 multiple myeloma tumour line; assay: In vitro cytotoxicity, Microculture Tetrazolium Assay; format: cell-based; conditions: H929 cells, 48 hours exposure, MTT, read-out: IC50 (μM) MTT H929
Procedure: The cytotoxicity studies were carried out on the H929 multiple myeloma tumour line.
The cells are distributed onto microplates and exposed to the test compounds for 48 hours.

Mcl-1 protein = Mcl-1 protein (UniProtKB primary accession number: Q07820) (Homo sapiens, UniProt Q07820); assay: Inhibition of Mcl-1 by fluorescence polarisation, Method 1; format: binding; conditions: for IC50: read-out: IC50 (M) Mcl-1 FP; for percentage fluorescence polarisation inhibition, Mcl-1 FP: partial inhibitors, @ 10 uM test compound
Chain of Mcl-1 protein (Q07820 whole entry): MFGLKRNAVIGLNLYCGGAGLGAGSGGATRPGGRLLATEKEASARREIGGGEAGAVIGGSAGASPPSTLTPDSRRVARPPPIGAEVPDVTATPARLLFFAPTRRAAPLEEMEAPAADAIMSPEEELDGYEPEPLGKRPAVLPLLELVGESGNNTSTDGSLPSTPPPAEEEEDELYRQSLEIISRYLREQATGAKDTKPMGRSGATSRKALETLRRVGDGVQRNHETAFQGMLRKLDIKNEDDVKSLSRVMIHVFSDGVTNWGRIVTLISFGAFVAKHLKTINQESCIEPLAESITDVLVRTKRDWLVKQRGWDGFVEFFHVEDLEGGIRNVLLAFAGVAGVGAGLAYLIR
In short: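 FP competition, 11-point compound titration in 5% final DMSO; protein and labelled probe at 5 nM and 1 nM final in HEPES/NaCl/Tween 20 buffer, pH 7.4.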

[3] = fluorescence polarisation test, Method 2 values are underlined in the patent (underlining not visible here)
[4] = fluorescence polarisation, Method 1, or Method 2

IC50 (Mcl-1 protein; [3]) [M]	percentage fluorescence polarisation inhibition, Mcl-1 FP (Mcl-1 protein) [% @ 10 uM]	IC50 (Mcl-1 protein; [4]) [M]	IC50 (Mcl-1 protein; fluorescence polarisation test, Method 1, or Method 2 where the value is underlined (underlining not visible)) [M]	Structure (SMILES)	PARP fold [1] [fold]	IC50 ([2]; Homo sapiens, NCI-H929, 48 h) [µM]	IC50 [2] [µM]
2.9e-09				CCCc1nccc(COc2ccccc2CC(Oc2ncnc3sc(-c4ccc(F)cc4)c(-c4ccc(OCCN5CCN(C)CC5)c(Cl)c4C)c23)C(=O)O)n1 [Example 41, (2R)-2-{[(5Sa)-5-{3-chloro-2-methyl-4-[2-(4-methylpiperazin-1-yl)ethoxy]phenyl}-6-(4-fluorophenyl)thieno[2,3-d]pyrimidin-4-yl]oxy}-3-{2-[(2-propylpyrimidin-4-yl)methoxy]phenyl}propanoic acid]	288.1	0.007	
6.7e-09				COCc1nccc(COc2ccccc2CC(Oc2ncnc3sc(-c4ccc(F)cc4)c(-c4ccc(OCCN5CCN(C)CC5)c(Cl)c4C)c23)C(=O)O)n1 [Example 45, (2R)-2-{[(5Sa)-5-{3-chloro-2-methyl-4-[2-(4-methylpiperazin-1-yl)ethoxy]phenyl}-6-(4-fluorophenyl)thieno[2,3-d]pyrimidin-4-yl]oxy}-3-(2-{[2-(methoxymethyl)pyrimidin-4-yl]methoxy}phenyl)propanoic acid]	194.3	0.009	
7.8e-09				CCOCc1nccc(COc2ccccc2C[C@@H](Oc2ncnc3sc(-c4ccc(F)cc4)c(-c4ccc(OCCN5CCN(C)CC5)c(Cl)c4C)c23)C(=O)O)n1 [Example 47, (2R)-2-{[(5Sa)-5-{3-chloro-2-methyl-4-[2-(4-methylpiperazin-1-yl)ethoxy]phenyl}-6-(4-fluorophenyl)thieno[2,3-d]pyrimidin-4-yl]oxy}-3-(2-{[2-(ethoxymethyl)pyrimidin-4-yl]methoxy}phenyl)propanoic acid]	101.1		0.005
2.5e-09				Cc1c(-c2c(-c3ccc(F)cc3)sc3ncnc(OC(Cc4ccccc4OCc4ccnc(-n5cccn5)n4)C(=O)O)c23)ccc(OCCN2CCN(C)CC2)c1Cl [Example 49, (2R)-2-{[(5Sa)-5-{3-chloro-2-methyl-4-[2-(4-methylpiperazin-1-yl)ethoxy]phenyl}-6-(4-fluorophenyl)thieno[2,3-d]pyrimidin-4-yl]oxy}-3-(2-{[2-(1H-pyrazol-1-yl)pyrimidin-4-yl]methoxy}phenyl)propanoic acid]	180.5	0.012	
3.4e-09				COCCNc1nccc(COc2ccccc2CC(Oc2ncnc3sc(-c4ccc(F)cc4)c(-c4ccc(OCCN5CCN(C)CC5)c(Cl)c4C)c23)C(=O)O)n1 [Example 53, (2R)-2-{[(5Sa)-5-{3-chloro-2-methyl-4-[2-(4-methylpiperazin-1-yl)ethoxy]phenyl}-6-(4-fluorophenyl)thieno[2,3-d]pyrimidin-4-yl]oxy}-3-[2-({2-[(2-methoxyethyl)amino]pyrimidin-4-yl}methoxy)phenyl]propanoic acid]	178.7	0.015	
5.8e-09				Cc1c(-c2c(-c3ccc(F)cc3)sc3ncnc(OC(Cc4ccccc4OCc4ccnc(OC(C)C)n4)C(=O)O)c23)ccc(OCCN2CCN(C)CC2)c1Cl [Example 55, (2R)-2-{[(5Sa)-5-{3-chloro-2-methyl-4-[2-(4-methylpiperazin-1-yl)ethoxy]phenyl}-6-(4-fluorophenyl)thieno[2,3-d]pyrimidin-4-yl]oxy}-3-(2-{[2-(propan-2-yloxy)pyrimidin-4-yl]methoxy}phenyl)propanoic acid]	188.4	0.007	
5e-09				CCOc1nccc(COc2ccccc2CC(Oc2ncnc3sc(-c4ccc(F)cc4)c(-c4ccc(OCCN5CCN(C)CC5)c(Cl)c4C)c23)C(=O)O)n1 [Example 57, (2R)-2-{[(5Sa)-5-{3-chloro-2-methyl-4-[2-(4-methylpiperazin-1-yl)ethoxy]phenyl}-6-(4-fluorophenyl)thieno[2,3-d]pyrimidin-4-yl]oxy}-3-{2-[(2-ethoxypyrimidin-4-yl)methoxy]phenyl}propanoic acid]	198.3	0.008	
	67.8			CCOC(=O)[C@@H](Cc1ccccc1OCc1ccnn1C(C)C)Oc1ncnc2sc(-c3ccc(F)o3)c(-c3ccc(OCCN4CCN(C)CC4)c(Cl)c3C)c12 [Example 623, ethyl (2R)-2-{[(5Sa)-5-{3-chloro-2-methyl-4-[2-(4-methylpiperazin-1-yl)ethoxy]phenyl}-6-(5-fluorofuran-2-yl)thieno[2,3-d]pyrimidin-4-yl]oxy}-3-(2-{[1-(propan-2-yl)-1H-pyrazol-5-yl]methoxy}phenyl)propanoate]	441.5		
	34.5			CCOC(=O)[C@@H](Cc1ccccc1OCc1ccnc(OCC(F)(F)F)n1)Oc1ncnc2sc(-c3ccc(F)cc3)c(-c3ccc(OCCN4CCN(C)CC4)c(Cl)c3C)c12 [Example 638, ethyl (2R)-2-{[(5Sa)-5-{3-chloro-2-methyl-4-[2-(4-methylpiperazin-1-yl)ethoxy]phenyl}-6-(4-fluorophenyl)thieno[2,3-d]pyrimidin-4-yl]oxy}-3-(2-{[2-(2,2,2-trifluoroethoxy)pyrimidin-4-yl]methoxy}phenyl)propanoate]	136.7		
	66.25			CCOC(=O)[C@@H](Cc1ccccc1OCc1ccnc(-c2ccccc2OC)n1)Oc1ncnc2sc(-c3ccc(F)cc3)c(-c3ccc(OCCN4CCN(C)CC4)c(Cl)c3C)c12 [Example 639, ethyl (2R)-2-{[(5Sa)-5-{3-chloro-2-methyl-4-[2-(4-methylpiperazin-1-yl)ethoxy]phenyl}-6-(4-fluorophenyl)thieno[2,3-d]pyrimidin-4-yl]oxy}-3-(2-{[2-(2-methoxyphenyl)pyrimidin-4-yl]methoxy}phenyl)propanoate]	195.7		
		6.89e-07		CCOC(=O)C(Cc1ccccc1OCc1ccnc(-c2ccccc2OC)n1)Oc1ncnc2sc(-c3ccc(F)cc3)c(-c3ccc(OCCN(C)C)c(Cl)c3C)c12 [Example 756, Ethyl (2R)-2-{[(5Sa)-5-{3-chloro-4-[2-(dimethylamino)ethoxy]-2-methylphenyl}-6-(4-fluorophenyl)thieno[2,3-d]pyrimidin-4-yl]oxy}-3-(2-{[2-(2-methoxyphenyl)pyrimidin-4-yl]methoxy}phenyl)propanoate]	117		
		1.91e-06		CCOC(=O)C(Cc1ccccc1OCc1ccnc(-c2ccccc2F)n1)Oc1ncnc2sc(-c3ccc(F)cc3)c(-c3ccc(OCCN4CCN(CC)CC4)c(Cl)c3C)c12 [Example 790, ethyl (2R)-2-{[(5Sa)-5-{3-chloro-4-[2-(4-ethylpiperazin-1-yl)ethoxy]-2-methylphenyl}-6-(4-fluorophenyl)thieno[2,3-d]pyrimidin-4-yl]oxy}-3-(2-{[2-(2-fluorophenyl)pyrimidin-4-yl]methoxy}phenyl)propanoate]	282.9		
			5.35e-06	CCOC(=O)C(Cc1ccccc1OCc1ccnn1C(C)(C)C)Oc1ncnc2sc(-c3ccc(F)cc3)c(-c3ccc(OCCN(C)C)c(Cl)c3C)c12 [Example 794, ethyl (2R)-3-{2-[(1-tert-butyl-1H-pyrazol-5-yl)methoxy]phenyl}-2-{[(5Sa)-5-{3-chloro-4-[2-(dimethylamino)ethoxy]-2-methylphenyl}-6-(4-fluorophenyl)thieno[2,3-d]pyrimidin-4-yl]oxy}propanoate]	125.6		
